Each structure is given as a SMILES string. Active and inactive are the calls of the source. The rule behind the calls is not given here.

Data set [1] relates to NIH3T3. Description: Cytotoxicity against Swiss albino mouse 3T3 cells at 10 to 20 uM. Type of data set: cell-based. The note with it: nih3t3, 20 µM.
Data set [2] concerns NIH3T3. Description: Wound healing activity in Swiss albino mouse 3T3 cells assessed as cell migration-associated increase in cell number at 10 uM after 12 hrs by scratch assay. Format: functional, cell-based.
In data set [3] the test system is NIH3T3. Description: Wound healing activity in Swiss albino mouse 3T3 cells assessed as cell migration-associated increase in cell number at 1 uM after 12 hrs by scratch assay. Type of data set: functional, cell-based.
Another data set concerns Jurkat. Description: Inhibition of TNF-alpha-induced NFkappaB activity in human Jurkat cells at 10 uM after 24 hrs by EMSA. Type of data set: cell-based.
Data set [4] relates to NIH3T3. Description: Wound healing activity in Swiss albino mouse 3T3 cells assessed as cell migration-associated increase in cell number at 20 uM after 12 hrs by scratch assay. Type of data set: functional, cell-based.

For the compound `COc1c(O)cc([C@H]2Oc3c(c(O)cc(O)c3[C@H]3c4c(O)cc(O)cc4O[C@H](c4cc(O)c(O)c(O)c4)[C@@H]3O)C[C@@H]2O)cc1O`, the Activity entry in the data set on NIH3T3 [1] was “Toxic”. The result in the data set with NIH3T3 [2] and in the data set with NIH3T3 [4] was inactive. Further, in the data set on NIH3T3 [3], the outcome was Active. Moreover, the inhibition entry in the data set on Jurkat is “Active”.

For the compound `COc1c(O)cc([C@H]2Oc3c(c(O)cc(O)c3[C@H]3c4c(O)cc(O)cc4O[C@H](c4ccc(O)c(O)c4)[C@@H]3O)C[C@@H]2O)cc1O`, the Activity entry in the data set on NIH3T3 [1] was “Toxic”. The outcome in the data set on NIH3T3 [2] and in the data set on NIH3T3 [4] was inactive. The result in the data set with NIH3T3 [3] was Active.

Take `COc1c(O)cc([C@H]2Oc3cc(O)cc(O)c3[C@@H](c3c(O)cc(O)c4c3O[C@H](c3cc(O)c(OC)c(O)c3)[C@@H](O)C4)[C@@H]2O)cc1O`: in the data set on NIH3T3 [1], the Activity entry is “Toxic”. Moreover, the result in the data set on NIH3T3 [2] and with NIH3T3 [4] was inactive. For the same compound, the result in the data set on NIH3T3 [3] was Active.
